Results published in patent US20120135078A1, “ANGINA TREATMENT” (University of Dindee, priority 2009, published 2012).

Assays:
[1] = tested on: angina patients; details: references 1-7; cited from earlier work
[2] = Serum analysis (biochemical data) in the cross-over study; type: in vivo, human; details: mean ± SD; after allopurinol treatment; p<0.001 vs baseline and placebo
Procedure: (§1) Eligible participants were then randomised to either allopurinol up to 300 mg BID or matching placebo for 6 weeks. The dose of allopurinol started at 100 mg OD for the first week, 300 mg OD for the second week and 300 mg BID for the remaining treatment period.
(§2) A p value <0.05 was considered significant.

[3] = tested on: patients with chronic stable angina; assay: Haemodynamic responses during exercise testing
[4] = tested on: patients with chronic stable angina; assay: Treadmill exercise tolerance test (full Bruce protocol), randomised double-blind placebo-controlled cross-over study; type: in vivo, human
Procedure: The trial was carried out at Ninewells Hospital, UK. It was approved by the Fife, Forth Valley and Tayside Research Ethics Committee and was conducted in accordance with the Declaration of Helsinki. Signed, written informed consent was obtained from each participant.
Individuals aged 18 to 85 years were eligible if they had angiographically documented coronary artery disease, a positive exercise tolerance test (ETT) and a history of symptoms of chronic, stable, effort-induced angina for ≧2 months. Concomitant antianginal medication was allowed.
Exclusion criteria included myocardial infarction ≧2 months, coronary revascularization (percutaneous or CABG) ≧6 months, Left Ventricular Ejection Fraction <45%, estimated GFR <45 ml/min, significant valvular pathology, already on allopurinol, atrial arrhythmias or ECG abnormalities interfering with ST-segment interpretation.
Eligible participants had to manifest ischaemia (ST depression ≧1mm compared to resting ECG) on both visits with a between visit difference in time to ST depression of less than 15%. Otherwise, a third ETT was performed and there had to be a difference of less than 15% between the second and third test.
as §1
The ECG analysis was performed by two independent observers who were both blind to the treatments. The results of each assessment were virtually identical.
as §2

[5] = cited from earlier work
[6] = mean ± SD, Stage 1 of Bruce protocol
[7] = median, after 6 weeks allopurinol up to 300 mg BID (600 mg/day) added to existing anti-anginal medication

## CC(C)NCC(O)COc1ccc(CC(N)=O)cc1 (stereo not shown) [atenolol]
[1]
  increase in time to ST depression, comparable published figures: around 50 seconds
  increase in time to ST depression, comparable published figures (percent): 15%

## COc1cc2c(cc1OC)CC(=O)N(CCCN(C)C[C@H]1Cc3cc(OC)c(OC)cc31)CC2 [ivabradine]
[1]
  increase in time to ST depression, comparable published figures: 46 s
  increase in time to ST depression, comparable published figures (percent): 13.5%

## COc1ccccc1OCC(O)CN1CCN(CC(=O)Nc2c(C)cccc2C)CC1 (stereo not shown) [ranolazine]
[1]
  increase in time to ST depression, comparable published figures: around 50 seconds
  increase in time to ST depression, comparable published figures (percent): 15%

## Oc1ncnc2[nH]ncc12 [Allopurinol, 1,5-dihydro-4H-pyrazolo[3,4-d]pyrimidin-4-one]
[2]
  serum uric acid: 0.14 ± 0.05 mmol/L
[3]; change from baseline, p=0.026 vs placebo
  systolic blood pressure change at the end of the first stage of the Bruce protocol: −6.1 mmHg
[3]; [6]
  HR Stage 1: 95.6 ± 13.5 bpm
  RPP (Rate Pressure Product) Stage 1: 12756 ± 2798 bpm · mmHg
  dBP Stage 1: 71.7 ± 10.1 mmhg
  sBP Stage 1: 135.5 ± 19.3 mmHg
[3]; mean ± SD, peak exercise
  HR Peak exercise: 118.5 ± 15.2 bpm
  RPP (Rate Pressure Product) Peak Exercise: 18842 ± 3791 bpm · mmHg
  dBP Peak Exercise: 75.4 ± 11.9 mmhg
  sBP Peak exercise: 158.7 ± 22.4 mmHg
[3]; mean ± SD, resting
  HR Resting: 63.8 ± 8.6 bpm
  RPP (Rate Pressure Product) Resting: 7910 ± 1577 bpm · mmHg
  dBP Resting: 72.2 ± 9.9 mmhg
  sBP Resting: 123.7 ± 16.2 mmHg
[4]; allopurinol vs baseline
  absolute increase in median time to ST depression: 66 s
  increase in median time to ST depression (percent): 28%
[4]; difference of medians
  median exercise time higher on allopurinol than on placebo or baseline: 86 to 92 s
  median exercise time higher on allopurinol than on placebo or baseline (percent): 30%
[4]; geometric mean
  increase in time to ST depression by geometric mean: 22%
[4]; [7]
  Time to ST Depression: 298 s
  Total Exercise Time: 393 s
[4]; median, after 6 weeks allopurinol up to 300 mg BID added to existing anti-anginal medication
  Time to Symptoms: 304 s
[5]; chloroform, ether
  solubility in chloroform and in ether: practically insoluble
[5]; dilute solutions of alkali hydroxides
  solubility in dilute solutions of alkali hydroxides: dissolves
[5]; water and alcohol
  solubility in water and alcohol: only slightly soluble
